# Assay results from patent publication US8658642B2 (Axikin Pharmaceuticals, Inc., priority 2009, dated 2014).
# Molecular target: T1, CCR3 (Homo sapiens, UniProt P51677)
# T1 sequence (P51677 1-355): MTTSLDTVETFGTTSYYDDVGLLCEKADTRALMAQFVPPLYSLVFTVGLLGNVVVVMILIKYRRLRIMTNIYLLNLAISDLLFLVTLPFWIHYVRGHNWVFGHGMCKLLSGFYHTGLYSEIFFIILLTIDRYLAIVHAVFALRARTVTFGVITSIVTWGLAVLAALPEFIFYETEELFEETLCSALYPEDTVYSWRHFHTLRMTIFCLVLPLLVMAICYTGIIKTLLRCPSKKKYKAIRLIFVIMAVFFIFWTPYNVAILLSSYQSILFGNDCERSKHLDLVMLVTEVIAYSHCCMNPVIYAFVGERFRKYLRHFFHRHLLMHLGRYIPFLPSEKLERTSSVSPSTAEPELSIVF
# Assay: CCR3 receptor binding assay ([125I]-labeled human eotaxin/CCL11 displacement on cells)
# Details: 0.1 nM [125I]-labeled human eotaxin/CCL11, 2×10^5 cells/well, 60 min at room temperature
# Description: CCR3 Receptor Binding Assay
# Cells were washed once with PBS and resuspended in a binding buffer (25 mM HEPES pH 7.6, 5 mM MgCl2, 1 mM CaCl2, 0.5% BSA, 0.1% NaN3). […] of cell suspension (2×10^5 cells/well) and 0.1 nM [^125I]-labeled human eotaxin/CCL11 (2000 Ci/mmol specific activity) were mixed in a 96-well U-bottom polypropylene plate, and incubated for 60 min at room temperature for the binding reaction. The cell suspension was then transferred to a filtration plate (#MAFB, Millipore), and washed 3 times with the binding buffer containing 0.5 M NaCl, scintillant added, and the radioactivity was counted on a TopCount (Packard). For the determination of non-specific binding, the cell suspension and [^125I]-labeled human eotaxin/CCL11 were incubated in the presence of 500 nM of unlabeled human eotaxin/CCL11. See, lino et al., “Molecular cloning and functional characterization of cynomolgus monkey (Macaca fascicularis) CC chemokine receptor, CCR3,” Cytokine 2002, 19, 276-286.
row,SMILES,Ki
1,N#Cc1ccc(Oc2cc(Cl)cc(Cl)c2)c(S(=O)(=O)N2CCN(C(=S)NCCN3CCOCC3)CC2)c1 [Compound 137],0.05 to 0.5 µM
2,Cc1nnsc1C(=O)N1CCN(S(=O)(=O)c2cc(C#N)ccc2Sc2cc(Cl)cc(Cl)c2)CC1 [Compound 139],≤ 0.05 µM
3,CC(=O)c1cccc(NC(=O)N2CCN(S(=O)(=O)c3cc(C#N)ccc3Oc3cc(Cl)cc(Cl)c3)CC2)c1 [Compound 140],≤ 0.05 µM
4,N#Cc1ccc(Oc2cc(Cl)cc(Cl)c2)c(S(=O)(=O)N2CCN(C(=O)CCCCl)CC2)c1 [Compound 141],≤ 0.05 µM
5,N#Cc1ccc(Oc2cc(Cl)cc(Cl)c2)c(S(=O)(=O)N2CCN(C(=O)NCCCl)CC2)c1 [Compound 142],0.05 to 0.5 µM
6,N#Cc1ccc(Oc2cc(Cl)cc(Cl)c2)c(S(=O)(=O)N2CCN(C(=S)NC(=O)/C=C/c3ccccc3)CC2)c1 [Compound 147],> 5 µM
7,C=CNC(=O)N1CCN(S(=O)(=O)c2cc(C#N)ccc2Oc2cc(Cl)cc(Cl)c2)CC1 [Compound 150],> 5 µM
8,"O=C(c1ccc(C(F)(F)F)cc1)N1CCN(S(=O)(=O)c2cc([N+](=O)[O-])ccc2Sc2cc(Cl)ccc2Cl)CC1 [Compound 153, (4-(2-(2,5-Dichlorophenylthio)-5-nitrophenylsulfonyl)piperazin-1-yl)(4-(trifluoromethyl)phenyl)methanone]",> 5 µM
9,N/C(=N\[N+](=O)[O-])N1CCN(S(=O)(=O)c2cc([N+](=O)[O-])ccc2Oc2cc(Cl)cc(Cl)c2)CC1 [Compound 154],> 5 µM
10,Cc1ccc(OC(=O)N2CCN(S(=O)(=O)c3cc(C#N)ccc3Oc3cc(Cl)cc(Cl)c3)CC2)cc1 [Compound 157],> 5 µM
11,C=CCOC(=O)N1CCN(S(=O)(=O)c2cc(C#N)ccc2Oc2cc(Cl)cc(Cl)c2)CC1 [Compound 159],> 5 µM
12,"O=C(CCCCl)N1CCN(S(=O)(=O)c2cc([N+](=O)[O-])ccc2Sc2cc(Cl)ccc2Cl)CC1 [Compound 160, 4-Chloro-1-(4-(2-(2,5-dichlorophenylthio)-5-nitrophenylsulfonyl)piperazin-1-yl)butan-1-one]",> 5 µM
13,"O=C(C1CCCCC1)N1CCN(S(=O)(=O)c2cc([N+](=O)[O-])ccc2Sc2cc(Cl)ccc2Cl)CC1 [Compound 162, Cyclohexyl(4-(2-(2,5-dichlorophenylthio)-5-nitrophenylsulfonyl)piperazin-1-yl)methanone]",> 5 µM
14,"O=C(c1ccc(Cl)cc1)N1CCN(S(=O)(=O)c2cc([N+](=O)[O-])ccc2Sc2cc(Cl)ccc2Cl)CC1 [Compound 164, (4-Chlorophenyl)(4-(2-(2,5-dichlorophenylthio)-5-nitrophenylsulfonyl)-piperazin-1-yl)methanone]",> 5 µM
15,"COc1ccc(C(=O)N2CCN(S(=O)(=O)c3cc([N+](=O)[O-])ccc3Sc3cc(Cl)ccc3Cl)CC2)cc1 [Compound 165, (4-Methoxyphenyl)(4-(2-(2,5-dichlorophenylthio)-5-nitrophenylsulfonyl)-piperazin-1-yl)methanone]",> 5 µM
16,"Cc1ccc(C)c(Sc2ccc([N+](=O)[O-])cc2S(=O)(=O)N2CCN(C(=O)c3ccc(Cl)cc3)CC2)c1 [Compound 173, (4-Chlorophenyl)(4-(2-(2,5-dimethylphenylthio)-5-nitrophenylsulfonyl)-piperazin-1-yl)methanone]",> 5 µM
17,"CC(C)CC(=O)N1CCN(S(=O)(=O)c2cc([N+](=O)[O-])ccc2Oc2cc(Cl)ccc2Cl)CC1 [Compound 177, 1-(4-(2-(2,5-Dichlorophenoxy)-5-nitrophenylsulfonyl)piperazin-1-yl)-3-methylbutan-1-one]",> 5 µM
18,"COc1ccc(C(=O)N2CCN(S(=O)(=O)c3cc([N+](=O)[O-])ccc3Oc3cc(C)ccc3C)CC2)cc1 [Compound 189, (4-(2-(2,5-Dimethylphenoxy)-5-nitrophenylsulfonyl)piperazin-1-yl)(4-methoxyphenyl)methanone]",> 5 µM
19,"Cc1ccc(C)c(Oc2ccc([N+](=O)[O-])cc2S(=O)(=O)N2CCN(C(=O)c3ccco3)CC2)c1 [Compound 190, (4-(2-(2,5-Dimethylphenoxy)-5-nitrophenylsulfonyl)piperazin-1-yl)(furan-2-yl)methanone]",> 5 µM
20,"C=CCNC(=O)N1CCN(S(=O)(=O)c2cc([N+](=O)[O-])ccc2Sc2cc(Cl)ccc2Cl)CC1 [Compound 191, N-Allyl-4-(2-(2,5-dichlorophenylthio)-5-nitrophenylsulfonyl)piperazine-1-carboxamide]",≤ 0.05 µM
21,"N#Cc1ccc(NC(=O)N2CCN(S(=O)(=O)c3cc([N+](=O)[O-])ccc3Sc3cc(Cl)ccc3Cl)CC2)cc1 [Compound 194, N-(4-Cyanophenyl)-4-(2-(2,5-dichlorophenylthio)-5-nitrophenylsulfonyl)-piperazine-1-carboxamide]",> 5 µM

# The remaining lines, values ahead:
row,Ki,SMILES
1,> 5 µM,N#Cc1ccc(Oc2cc(Cl)cc(Cl)c2)c(S(=O)(=O)N2CCN(C(=O)c3nc4ccccc4s3)CC2)c1 [Compound 132]
2,0.05 to 0.5 µM,N#Cc1ccc(Oc2cc(Cl)cc(Cl)c2)c(S(=O)(=O)N2CCN(C(=O)c3cnccn3)CC2)c1 [Compound 133]
3,0.05 to 0.5 µM,N#Cc1ccc(Oc2cc(Cl)cc(Cl)c2)c(S(=O)(=O)N2CCN(C(=O)N3CCOCC3)CC2)c1 [Compound 134]
4,≤ 0.05 µM,N#Cc1ccc(Oc2cc(Cl)cc(Cl)c2)c(S(=O)(=O)N2CCN(C(=O)NCc3ccco3)CC2)c1 [Compound 135]
5,≤ 0.05 µM,N#Cc1ccc(Oc2cc(Cl)cc(Cl)c2)c(S(=O)(=O)N2CCN(C(=S)NCc3ccco3)CC2)c1 [Compound 136]
6,0.05 to 0.5 µM,Cc1ccsc1C(=O)N1CCN(S(=O)(=O)c2cc(C#N)ccc2Oc2cc(Cl)cc(Cl)c2)CC1 [Compound 138]
7,0.05 to 0.5 µM,CCOC(=O)CCNC(=S)N1CCN(S(=O)(=O)c2cc(C#N)ccc2Oc2cc(Cl)cc(Cl)c2)CC1 [Compound 143]
8,≤ 0.05 µM,N#Cc1ccc(Oc2cc(Cl)cc(Cl)c2)c(S(=O)(=O)N2CCN(C(=S)Nc3ccccc3)CC2)c1 [Compound 144]
9,≤ 0.05 µM,N#Cc1ccc(Oc2cc(Cl)cc(Cl)c2)c(S(=O)(=O)N2CCN(C(=S)NC(=O)c3ccccc3)CC2)c1 [Compound 145]
10,≤ 0.05 µM,CSCCCNC(=S)N1CCN(S(=O)(=O)c2cc(C#N)ccc2Oc2cc(Cl)cc(Cl)c2)CC1 [Compound 146]
11,0.05 to 0.5 µM,N#CCC(=O)N1CCN(S(=O)(=O)c2cc(C#N)ccc2Oc2cc(Cl)cc(Cl)c2)CC1 [Compound 148]
12,> 5 µM,N#Cc1ccc(Oc2cc(Cl)cc(Cl)c2)c(S(=O)(=O)N2CCN(C(=S)NCc3cccc(Cl)c3)CC2)c1 [Compound 149]
13,> 5 µM,"CC(C)CC(=O)N1CCN(S(=O)(=O)c2cc([N+](=O)[O-])ccc2Sc2cc(Cl)ccc2Cl)CC1 [Compound 152, 1-(4-(2-(2,5-Dichlorophenylthio)-5-nitrophenylsulfonyl)piperazin-1-yl)-3-methylbutan-1-one]"
14,> 5 µM,N#Cc1ccc(Oc2cc(Cl)cc(Cl)c2)c(S(=O)(=O)N2CCN(C(=O)Oc3ccc([N+](=O)[O-])cc3)CC2)c1 [Compound 155]
15,> 5 µM,COc1ccc(OC(=O)N2CCN(S(=O)(=O)c3cc(C#N)ccc3Oc3cc(Cl)cc(Cl)c3)CC2)cc1 [Compound 156]
16,> 5 µM,N#Cc1ccc(Oc2cc(Cl)cc(Cl)c2)c(S(=O)(=O)N2CCN(C(=O)OCCCCCl)CC2)c1 [Compound 158]
17,> 5 µM,"O=C(C1CCC1)N1CCN(S(=O)(=O)c2cc([N+](=O)[O-])ccc2Sc2cc(Cl)ccc2Cl)CC1 [Compound 161, Cyclobutyl(4-(2-(2,5-dichlorophenylthio)-5-nitrophenylsulfonyl)piperazin-1-yl)methanone]"
18,> 5 µM,"O=C(c1ccccc1)N1CCN(S(=O)(=O)c2cc([N+](=O)[O-])ccc2Sc2cc(Cl)ccc2Cl)CC1 [Compound 163, (4-(2-(2,5-Dichlorophenylthio)-5-nitrophenylsulfonyl)piperazin-1-yl)(phenyl)methanone]"
19,> 5 µM,"COc1ccc(C(=O)N2CCN(S(=O)(=O)c3cc([N+](=O)[O-])ccc3Sc3cc(C)ccc3C)CC2)cc1 [Compound 174, (4-(2-(2,5-Dimethylphenylthio)-5-nitrophenylsulfonyl)piperazin-1-yl)(4-methoxyphenyl)methanone]"
20,> 5 µM,"COc1ccc(C(=O)N2CCN(S(=O)(=O)c3cc([N+](=O)[O-])ccc3Oc3cc(Cl)ccc3Cl)CC2)cc1 [Compound 184, (4-(2-(2,5-Dichlorophenoxy)-5-nitrophenylsulfonyl)piperazin-1-yl)(4-methoxyphenyl)methanone]"
21,> 5 µM,"O=C(c1ccco1)N1CCN(S(=O)(=O)c2cc([N+](=O)[O-])ccc2Oc2cc(Cl)ccc2Cl)CC1 [Compound 185, (4-(2-(2,5-Dichlorophenoxy)-5-nitrophenylsulfonyl)piperazin-1-yl)(furan-2-yl)methanone]"
22,> 5 µM,"Cc1ccc(NC(=O)N2CCN(S(=O)(=O)c3cc([N+](=O)[O-])ccc3Sc3cc(Cl)ccc3Cl)CC2)cc1 [Compound 193, 4-(2-(2,5-Dichlorophenylthio)-5-nitrophenylsulfonyl)-N-p-tolylpiperazine-1-carboxamide]"
